Legend:
human secreted PLA2 = target: T1, human secreted PLA2 (Homo sapiens, UniProt P14555); experiment: chromogenic assay of recombinant human secreted phospholipase A2 inhibition (Assay Example 1); type: biochemical; conditions: mean of 3-5 tests; 40° C., 30 minutes, pH 7.5, 405 nanometers; read-out: Inhibition of human secreted PLA2 IC50 ± mean deviation (3-5 tests)
T1 sequence (P14555 21-144): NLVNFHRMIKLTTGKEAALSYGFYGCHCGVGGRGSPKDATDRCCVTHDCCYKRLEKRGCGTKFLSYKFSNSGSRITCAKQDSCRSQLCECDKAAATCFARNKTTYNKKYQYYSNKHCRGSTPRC
Text: The assay described herein has been adapted for high volume screening using 96 well microtiter plates. A general description of this assay method is found in the article, "Analysis of Human Synovial Fluid Phospholipase A2 on Short Chain Phosphatidylcholine-Mixed Micelles: Development of a Spectrophotometric Assay Suitable for a Microtiterplate Reader", by Laure J. Reynolds, Lori L. […] Reagents, the disclosure of which is incorporated herein by reference. REACTION BUFFER CaCl2.2H20 (1.47 g/L) KCl (7.455 g/L) Bovine Serum Albumin (fatty acid free) (1 g/L) (Sigma A-7030, product of Sigma Chemical Co. St. Louis Mo., USA) TRIS HCl (3.94 g/L) pH 7.5 (adjust with NaOH) ENZYME BUFFER […] 0.2 NaCl Adjust pH to 4.5 with acetic acid DTNB […] RACEMIC DIHEPTANOYL THIO - PC […] TRITON X-100™ prepare at 6.249 mg/ml in reaction buffer to equal […]. REACTION MIXTURE A measured volume of racemic dipheptanoyl thio PC supplied in chloroform at a concentration of 100 mg/ml is taken to dryness and redissolved in 10 millimolar TRITON X-100™ nonionic detergent aqueous solution. Reaction Buffer is added to the solution, then DTNB to give the Reaction Mixture. The reaction mixture thus obtained contains 1 mM diheptanoly thio-PC substrate, 0.29 mM Triton X-100™ detergent, and 0.12 mM DTMB in a buffered aqueous solution at pH 7.5. Assay Procedure: 1. Add 0.2 ml reaction mixture to all wells; 2. Add 10 ul test compound (or solvent blank) to appropriate wells, mix 20 seconds; 3. Add 50 nanograms of sPLA2 (10 microliters) to appropriate wells; 4. Incubate plate at 40° C. for 30 minutes; […] Read absorbance of wells at 405 nanometers with an automatic plate reader. All compounds were tested in triplicate. Typically, compounds were tested at a final concentration of 5 ug/ml. […] Lack of color development at 405 nanometers evidenced inhibition. Compounds initially found to be active were reassayed to confirm their activity and, if sufficiently active, IC50 values were determined. […] In all cases, % inhibition measured at 405 nanometers generated by enzyme reactions containing inhibitors relative to the uninhibited control reactions was determined. Each sample was titrated in triplicate and result values were averaged for plotting and calculation of IC50 values. […] IC50 values were determined at least three times for each compound tested.

sPLA2 contraction = target: T2, sPLA2 contraction (Homo sapiens, UniProt P14555); experiment: sPLA2-induced contraction of guinea pig lung pleural strips, tissue test (Assay Example 2); parameters: species or system Male Hartley strain guinea pigs; key to transient contraction of tissue during test: *: indicates transient contraction of tissue during test; conditions: for inhibition at 10 µM / inhibition at 30 µM: guinea pig, sPLA2 10 ug/ml; for inhibition at 10 µM: compound concentration 10 uM, read-out: % suppression of sPLA2 contraction at 10 uM; for inhibition at 30 µM: compound concentration 30 uM, read-out: % suppression of sPLA2 contraction at 30 uM
T2 sequence (P14555 21-144): T1 sequence (P14555 21-144)
Text: Male Hartley strain guinea pigs (500-700 g) were killed by cervical dislocation and their heart and lungs removed intact and placed in aerated (95% O2 :5% CO2) Krebs buffer. Dorsal pleural strips (4×1×25 mm) were dissected from intact parenchymal segments (8×4×25 mm) cut parallel to the outer edge of the lower lung lobes. Two adjacent pleural strips, obtained from a single lobe and representing a single tissue sample, were tied at either end and independently attached to a metal support rod. One rod was attached to a Grass force-displacement transducer (Model FTO3C, product of Grass Medical Instruments Co., Quincy, Mass., USA). […] All tissues were placed in 10 ml jacketed tissue baths maintained at 37° C. The tissue baths were continuously aerated and contained a modified Krebs solution of the following composition (millimolar) NaCl, 118.2; KCl, 4.6; CaCl2.2H2 O, 2.5; MgSO4.7H2 O, 1.2; NaHCO3, 24.8; KH2 PO4, 1.0; and dextrose, 10.0. Pleural strips from the opposite lobes of the lung were used for paired experiments. […] The tissues were allowed to equilibrate for 45 min. as the bath fluid was changed periodically. Cumulative concentration-response curves: Initially tissues were challenged 3 times with KCl (40 mM) to test tissue viability and to obtain a consistent response. After recording the maximal response to KCl the tissues were washed and allowed to return to baseline before the next challenge. Cumulative concentration-response curves were obtained from pleural strips by increasing the agonist concentration (sPLA2) in the tissue bath by half-log10 increments while the previous concentration remained in contact with the tissues (Ref.1, supra.) Agonist concentration was increased after reaching the plateau of the contraction elicited by the preceding concentration. One concentration-response curve was obtained from each tissue. To minimize variability between tissues obtained from different animals, contractile responses were expressed as a percentage of the maximal response obtained with the final KCl challenge. When studying the effects of various drugs on the contractile effects of sPLA2, the compounds and their respective vehicles were added to the tissues 30 min. prior to starting the sPLA2 concentration-response curves. statistical analysis: Data from different experiments were pooled and presented as a percentage of the maximal KCl responses (mean±S.E.). To estimate the drug induced rightward shifts in the concentration response curves, the curves were analyzed simultaneously using statistical nonlinear modeling methods similar to those described by Waud (1976), Equation 26, p. 163, (Ref.2). The model includes four parameters: the maximum tissue response which was assumed the same for each curve, the ED50 for the control curve, the steepness of the curves, and the PA2, the concentration of antagonist that requires a two-fold increase in agonist to achieve an equivalent response. The Schild slope was determined to be 1, using statistical nonlinear modeling methods similar to those described by Waud (1976), Equation 27, p. 164 (Ref. 2). […] To estimate the drug-induced suppression of the maximal responses, sPLA2 responses (10 ug/ml) were determined in the absence and presence of drug, and percent suppression was calculated for each pair of tissues. Ref. 1--van Rossum, J. M.: Cumulative dose-response curves. II. Technique for the making of dose-response curves in isolated organs and the evaluation of drug parameters. Arch. Int. Pharmacodyn. Ther. 143: 299-330, 1963. Ref. 2--Waud, D.: Analysis of dose-response relationships. in Advances in General and Cellular Pharmacology […]

An IC50 (human secreted PLA2) of 0.86 ± 0.12 µM, an inhibition at 10 µM (sPLA2 contraction) of 55.2 ± 6.6% and an inhibition at 30 µM (sPLA2 contraction) of 83.9 ± 3.2% were found for `COc1ccc2c(c1)c(CC(=O)NN)c(C)n2Cc1ccccc1` [Example 16, 5-Methoxy-2-methyl-1-(phenylmethyl)-1H-indole-3-acetic acid hydrazide] in this work.
For `COc1ccc2c(c1)c(CC(=O)NN)c(C)n2Cc1cccc(Cl)c1` [Example 18, 1-(3-Chlorophenylmethyl)-5-methoxy-2-methyl-1H-indole-3-acetic acid hydrazide], the IC50 (human secreted PLA2) was 1.02 ± 0.18 µM, the “transient contraction of tissue during test” value (sPLA2 contraction; footnote * of Table 2) was “*” and the inhibition at 10 µM (sPLA2 contraction) was 70.7 ± 6.4%. The inhibition at 30 µM (sPLA2 contraction) was 98 ± 1.5%.
An IC50 (human secreted PLA2) of 0.26 ± 0.08 µM and an inhibition at 30 µM (sPLA2 contraction) of -4.2 ± 6.2% were found for `COc1ccc2c(c1)c(CC(=O)NN)c(C)n2Cc1ccccc1-c1ccccc1` [Example 24, 1-([1,1'-Biphenyl]-2-ylmethyl)-5-methoxy-2-methyl-1H-indole-3-acetic acid hydrazide] in this work.
An IC50 (human secreted PLA2) of 0.94 ± 0.33 µM and an inhibition at 30 µM (sPLA2 contraction) of 7.3 ± 9.9% were found for `COc1ccc2c(c1)c(CC(=O)NN)c(C)n2Cc1cccc(-c2ccccc2)c1` [Example 25, 1-([1,1'-Biphenyl]-3-ylmethyl)-5-methoxy-2-methyl-1H-indole-3-acetic acid hydrazide] in this work.
An IC50 (human secreted PLA2) of 0.61 ± 0.22 µM, an inhibition at 10 µM (sPLA2 contraction) of 21.4% and an inhibition at 30 µM (sPLA2 contraction) of 60.9 ± 9.7% were found for `COc1ccc2c(c1)c(CC(=O)NN)c(C)n2Cc1cccc(OCc2ccccc2)c1` [Example 30, 1-[(3-Benzyloxyphenyl)methyl]-5-methoxy-2-methyl-1H-indole-3-acetic acid hydrazide] in this work.
An IC50 (human secreted PLA2) of 3 ± 1.4 µM and an inhibition at 30 µM (sPLA2 contraction) of 47.5 ± 13.4% were found for `COc1ccc2c(c1)c(CC(=O)NN)c(C)n2Cc1cccc(O)c1` [Example 31, 1-[(3-Hydroxyphenyl)methyl]-5-methoxy-2-methyl-1H-indole-3-acetic acid hydrazide] in this work.
An IC50 (human secreted PLA2) of 0.39 ± 0.03 µM and an inhibition at 30 µM (sPLA2 contraction) of 91.3 ± 6% were found for `COc1ccc2c(c1)c(CC(=O)NN)c(Cl)n2Cc1ccccc1` [Example 43, 2-Chloro-5-methoxy-1-(phenylmethyl)-1H-indole-3-acetic acid hydrazide] in this work.
An IC50 (human secreted PLA2) of 0.43 ± 0.03 µM and an inhibition at 30 µM (sPLA2 contraction) of 87.4 ± 9.3% were found for `COc1ccc2c(c1)c(CC(=O)NN)c(Br)n2Cc1ccccc1` [Example 44, 2-Bromo-5-methoxy-1-(phenylmethyl)-1H-indole-3-acetic acid hydrazide] in this work.
An IC50 (human secreted PLA2) of 0.71 ± 0.34 µM, an inhibition at 10 µM (sPLA2 contraction) of 37.8 ± 15.5% and an inhibition at 30 µM (sPLA2 contraction) of 29.1 ± 7% were found for `Cc1c(CC(=O)NN)c2cc(Br)ccc2n1Cc1cccc(OCc2ccccc2)c1` [Example 52, 1-[(3-Benzyloxyphenyl)methyl]-5-bromo-2-methyl-1H-indole-3-acetic acid hydrazide] in this work.
An IC50 (human secreted PLA2) of 0.93 ± 0.55 µM and an inhibition at 30 µM (sPLA2 contraction) of 66.3 ± 5.9% were found for `Cc1c(CC(=O)NN)c2ccc(-c3ccccc3)cc2n1Cc1ccccc1` [Example 57, 2-Methyl-6-phenyl-1-(phenylmethyl)-1H-indole-3-acetic acid hydrazide] in this work.
An IC50 (human secreted PLA2) of 1.39 ± 0.69 µM and an inhibition at 30 µM (sPLA2 contraction) of 72.3 ± 4.5% were found for `Cc1c(CC(=O)NN)c2cc(O)ccc2n1Cc1ccccc1` [Example 61, 5-Hydroxy-2-methyl-1-(phenylmethyl)-1H-indole-3-acetic acid hydrazide] in this work.
An IC50 (human secreted PLA2) of 0.36 ± 0.03 µM, an inhibition at 10 µM (sPLA2 contraction) of 41.2 ± 3.8% and an inhibition at 30 µM (sPLA2 contraction) of 48 ± 7% were found for `Cc1c(CC(=O)NN)c2cc(C(=O)O)ccc2n1Cc1cccc(Cl)c1` [Example 68, 5-Carboxy-1-[(3-chlorophenyl)methyl]-2-methyl-1H-indole-3-acetic acid hydrazide] in this work.
An IC50 (human secreted PLA2) of 2.47 ± 0.64 µM and an inhibition at 30 µM (sPLA2 contraction) of 45.1 ± 6.8% were found for `Cc1c(CC(=O)NN)c2cc(C(=O)NN)ccc2n1Cc1ccccc1` [Example 70, 5-Hydrazinocarbonyl-2-methyl-1-(phenylmethyl)-1H-indole-3-acetic acid hydrazide] in this work.

Reference: patent US5578634A, “1H-indole-3-acetic acid hydrazide sPLA2 inhibitors” (Eli Lilly and Company, priority 1995, dated 1996)
